Source: patent US20080167532A1, “ASSESSING CANCER TREATMENT RESPONSIVENESS” (Mayo Foundation for Medical Education and Research, priority 2006, published 2008)
“Also recorded” adds a separate entry of the source.

Assays:
[1] = biological target: T1, PPARγ (Homo sapiens, UniProt P37231); experiment: PPAR isoform luciferase reporter in transfected RIE cells; type: cell-based; design: expressed in transfected cells; host or cells: RIE (rat small intestinal cell line); details: RIE cells transfected with PPARγ and PPRE3-tk-luc, 10 nM
T1 sequence (P37231 1-505): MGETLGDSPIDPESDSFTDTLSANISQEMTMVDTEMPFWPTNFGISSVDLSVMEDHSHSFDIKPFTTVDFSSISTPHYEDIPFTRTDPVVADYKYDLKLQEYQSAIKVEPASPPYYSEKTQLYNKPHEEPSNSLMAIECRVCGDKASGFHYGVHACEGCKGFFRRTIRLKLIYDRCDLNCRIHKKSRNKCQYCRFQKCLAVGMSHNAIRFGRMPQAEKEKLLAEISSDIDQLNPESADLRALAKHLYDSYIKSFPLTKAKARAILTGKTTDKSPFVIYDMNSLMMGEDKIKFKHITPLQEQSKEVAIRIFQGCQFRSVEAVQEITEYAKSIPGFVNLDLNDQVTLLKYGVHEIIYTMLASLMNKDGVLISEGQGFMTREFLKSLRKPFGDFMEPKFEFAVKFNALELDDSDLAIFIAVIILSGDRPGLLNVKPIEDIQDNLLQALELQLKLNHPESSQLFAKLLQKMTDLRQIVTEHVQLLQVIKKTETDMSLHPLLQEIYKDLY
Text: Increased luciferase activity was only observed in the presence of PPARγ and PPRE3-tk-luc.

[2] = tested on: DRO cells; experiment: Western blot of RhoB, RhoA, p21, cyclin E polypeptides in DRO cells; type: cell-based, human
Method: RhoB and p21^WAF1/CIP1 polypeptide expression also was examined in ATC cells to determine the time course of induction of each polypeptide following stimulation with a PPARγ agonist (FIG. 6). […]. Polypeptide lysates were prepared and examined for RhoB, RhoA and β-actin expression. […]; FIG. 6A).
The time course for induction of RhoB and p21^WAF1/CIP1 was determined using Western blotting.
DRO90-1 (DRO) and ARO81 (ARO) cells were derived from primary cultures of human anaplastic thyroid carcinoma tumors that were obtained from Dr. G. J. Juillard (University of California-Los Angeles, Los Angeles, Calif.), and KTC-2 and KTC3 cells were obtained from Dr. Junichi Kurebayashi (Podtcheko et al., J. Clin. Endocrinol. Metab., 88:1889-1896 (2003) and Pushkarev et al., Molecular mechanisms of the Effects of Low Concentrations of Taxol in Anaplastic Thyroid Cancer Cells. Endocrinology: en. 2004-0127 (2004)). Cells were cultured in RPMI 1640 medium (Cellgro, Herndon Va.) supplemented with 10% charcoal-stripped fetal bovine serum (Hyclone), non-essential amino acids, sodium pyruvate, and penicillin-streptomycin-amphotericin B at 37° C. in a humidified atmosphere with 5% CO^2. Charcoal-stripped serum was used to exclude endogenous PPAR ligands contained in serum. For proliferation studies, cells were plated in triplicate in 12-well culture plates at initial concentrations of 2×10^4 cells/well. After overnight incubation, cells were treated with 10 nM RS5444 or DMSO diluent (Sigma) for 6 days with medium, and drug changed every 48 hours. After 6 days, cells were washed with PBS (Cellgro), trypsinized, and counted by Beckman Coulter Counter (Beckman Instruments, Fullerton Calif.). For morphology studies, cells were plated in 12 well plates at initial concentrations of 2.5×10^4 cells/well. Cells were treated with either DMSO or 10 nM RS5444 (24 hours). After treatment, phase images were obtained on an inverted microscope. For real time PCR studies, cells were plated in 60 mm plates at 50% confluence and treated with 10 nM RS5444 for indicated incubation periods. […].
Cells were collected and lysed in RIPA buffer containing 50 mM Tris, 5 mM EDTA, 150 mM NaCl, 0.1% SDS, 0.5% Deoxycholate, 1% NP40, and protease inhibitor cocktail (Roche) followed by centrifugation. Excised tumor tissues were lysed in 50 mM Tris pH 8.0+1% SDS. Collected supernatants were, analyzed for protein concentration using Pierce's BCA assay, with 25 μg protein loaded per gel lane (Invitrogen) with later transfer to Immobilon-P membranes. The membranes were hybridized with antibodies (Santa Cruz, Cell Signaling, Sigma-Aldrich, St. Louis Mo.) as indicated overnight at 4° C. followed by treatment with species-specific horseradish peroxidase IgG (Jackson labs) for 45 minutes at room temperature. Detection was performed using Supersignal West Pico chemoluminescence kit (Pierce). Quantification of bands was performed in triplicate using Image Quant 5.2 (Molecular Dynamics, Sunnyvale Calif.).

[3] = tested on: DRO cells; experiment: Real-time PCR of RhoB and p21 RNA in DRO cells; type: cell-based, human; details: 10 nM vs DMSO, time course
Method: Experiments also were conducted to examine the expression of RhoB in response to treatment with a PPARγ agonist. Cells from the human ATC cell line, DRO, were treated at various time points during 48 hours with DMSO control (0.1%) or 10 nM RS5444. RhoB and p21^WAF1/CIP1 RNA levels were measured using real-time PCR. Data were normalized to DMSO untreated controls for each time point measured.
Total mRNA was isolated from cells using RNAqueous (Ambion) per the manufacturer's protocol followed by ethanol precipitation. Total RNA from normal thyroid tissue was extracted using TOTALLY RNA (Ambion) according to manufacturer's protocol followed by Chroma Spin Column 100 (BD Bioscience). Two-step quantitative reverse transcriptase-mediated real-time PCR (QPCR) was used to measure changes in mRNA levels of target genes in ATC cells. Total RNA was reverse transcribed using the High-Capacity cDNA Archive kit (Applied Biosystems) per the manufacturer's instructions. […] Forty amplification cycles were performed on the Applied Biosystems Prism 7900 sequence detector, with cycle threshold (Ct) values calculated using the Sequence Detection System software (SDS 2.2.2. Applied Biosystems) normalized against 18S rRNA levels. Fold change values either between treated (RS5444) and control samples were calculated using the ΔΔCt method (Livak and Schmittgen, Methods, 25:402-408 (2001)).

Cc1cc(Oc2ccc3nc(COc4ccc(CC5SC(=O)NC5=O)cc4)n(C)c3c2)cc(C)c1N (centres unmarked) [RS5444]
activation of PPARγ (luciferase activity) [1]: specifically activates PPARγ | RhoA polypeptide expression (Western blot) ([2]; 10 nM RS5444): no change in RhoA polypeptide expression; also recorded: no change in RhoA polypeptide levels | Cyclin E levels (Western blot) ([2]; 10 nM, at 24 hours, not at earlier time points): down-regulated | RhoB polypeptide level, time course (Western blot) ([2]; 10 nM, up to 24 hours): significantly elevated at 6 hours | p21WAF1/CIP1 polypeptide level, time course (Western blot) ([2]; 10 nM, up to 24 hours): significantly elevated at 6 hours | RhoB polypeptide levels (Western blot) ([2]; 24 hours after single treatment, 10 nM RS5444, 100 nM rosiglitazone, 1 μM troglitazone): induced most strongly; also recorded: induced RhoB polypeptide levels | RhoB and p21 expression (Western blot) ([2]; 24 hours, 10 nM RS5444, 1 ng/mL FK-228, 10 μM FTI-277): upregulation of both RhoB and p21 expression | RhoB mRNA levels (real-time PCR) [3]: RhoB mRNA induction as early as 2 hours; also recorded: significantly elevated at 12 hours through 48 hours
